Test results taken from patent publication US8404708B2, “Dual NK1/NK3 receptor antagonists” (Hoffmann-La Roche Inc., priority 2004, dated 2013).
Read-outs that look alike come from different tables or passages of the source.

Experiments:
[1] = target: human NK1 receptor (Homo sapiens, UniProt P25103); test: NK1 receptor binding, [3H]substance P displacement, CHO cell membranes; conditions: first value of the cell pKi NK1/NK3; human NK1 receptor, [3H]substance P
[2] = target: T1, Recombinant human NK3 (hNK3) receptor (Homo sapiens, UniProt P29371); test: NK3 receptor binding, [3H]SR142801 displacement, membrane preparations
T1 construct: expressed in transfected cells
T1 sequence (P29371 1-465): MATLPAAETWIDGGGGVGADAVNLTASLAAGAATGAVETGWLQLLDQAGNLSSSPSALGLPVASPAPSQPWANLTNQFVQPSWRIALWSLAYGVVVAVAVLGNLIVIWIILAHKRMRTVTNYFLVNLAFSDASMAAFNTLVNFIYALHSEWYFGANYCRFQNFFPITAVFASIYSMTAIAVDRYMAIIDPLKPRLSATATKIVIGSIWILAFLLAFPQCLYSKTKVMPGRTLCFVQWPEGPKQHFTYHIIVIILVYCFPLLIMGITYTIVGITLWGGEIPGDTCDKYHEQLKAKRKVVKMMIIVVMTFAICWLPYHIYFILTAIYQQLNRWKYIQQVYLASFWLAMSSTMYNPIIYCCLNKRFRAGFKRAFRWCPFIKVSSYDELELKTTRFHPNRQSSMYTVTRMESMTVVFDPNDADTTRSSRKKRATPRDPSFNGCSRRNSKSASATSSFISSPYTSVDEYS
Protocol: Non specific binding was determined using 10 μM SB222200. Assay buffer consisted of Tris-HCl (50 mM, pH 7.4), BSA (0.1%), MnCl2 (4 mM) and phosphoramidon (1 μM). Membrane preparations of hNK3 receptors (approximately 2.5 μg/well in a 96 well plate) were used to initiate the incubation for 90 min at room temperature. This assay was terminated by rapid filtration under vacuum through GF/C filters, presoaked for 90 min with PEI (0.3%), with 3×0.5 ml washes of ice-cold Tris buffer (50 mM, pH 7.4) containing 0.1% BSA. The radioactivity retained on the filters was measured by scintillation counting. All assays were performed in duplicate in at least two separate experiments.

[3] = second value of the cell pKi NK1/NK3, hNK3 receptor, [3H]SR142801
[4] = second value of the cell NK1/NK3, read-out: pKi NK3 (converted)

Chain of human NK1 receptor (P25103 whole entry): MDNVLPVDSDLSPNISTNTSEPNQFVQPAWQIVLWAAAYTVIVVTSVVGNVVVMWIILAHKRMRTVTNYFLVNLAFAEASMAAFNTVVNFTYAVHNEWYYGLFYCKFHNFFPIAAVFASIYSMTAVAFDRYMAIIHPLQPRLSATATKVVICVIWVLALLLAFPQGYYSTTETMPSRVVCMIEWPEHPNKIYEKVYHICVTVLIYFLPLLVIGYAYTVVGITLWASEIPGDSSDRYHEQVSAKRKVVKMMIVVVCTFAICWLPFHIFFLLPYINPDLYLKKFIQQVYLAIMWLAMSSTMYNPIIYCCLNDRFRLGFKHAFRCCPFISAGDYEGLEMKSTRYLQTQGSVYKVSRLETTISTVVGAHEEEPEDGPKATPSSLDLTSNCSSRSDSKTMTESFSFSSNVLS

SMILES	Ki [1]	Ki [2, 3]	Ki [2, 4]
CCN(C(C)=O)C1CCN(c2cc(-c3ccccc3Cl)c(N(C)C(=O)C(C)(C)c3cc(C(F)(F)F)cc(C(F)(F)F)c3)cn2)C1 (racemic) [Example 45, (RS)-N-[6-[3-(Acetyl-ethyl-amino)-pyrrolidin-1-yl]-4-(2-chloro-phenyl)-pyridin-3-yl]-2-(3,5-bis-trifluoromethyl-phenyl)-N-methyl-isobutyramide]	2.29 nM	2 nM	–
CN(C(=O)C(C)(C)c1cc(C(F)(F)F)cc(C(F)(F)F)c1)c1cnc(N2CCCC(O)C2)cc1-c1ccccc1Cl (racemic) [Example 50, (RS)-2-(3,5-Bis-trifluoromethyl-phenyl)-N-[4′-(2-chloro-phenyl)-3-hydroxy-3,4,5,6-tetrahydro-2H-[1,2′]bipyridinyl-5′-yl]-N-methyl-isobutyramide]	1.41 nM	14.5 nM	–
CN(C(=O)C(C)(C)c1cc(C(F)(F)F)cc(C(F)(F)F)c1)c1cnc(N2CCCCC2CCO)cc1-c1ccccc1Cl (racemic) [Example 53, (RS)-2-(3,5-Bis-trifluoromethyl-phenyl)-N-[4′-(2-chloro-phenyl)-2-(2-hydroxy-ethyl)-3,4,5,6-tetrahydro-2H-[1,2′]bipyridinyl-5′-yl]-N-methyl-isobutyramide]	2.51 nM	24.5 nM	–
CN(CC(O)CO)c1cc(-c2ccccc2Cl)c(N(C)C(=O)C(C)(C)c2cc(C(F)(F)F)cc(C(F)(F)F)c2)cn1 (racemic) [Example 58, (RS)-2-(3,5-Bis-trifluoromethyl-phenyl)-N-{4-(2-chloro-phenyl)-6-[(2,3-dihydroxy-propyl)-methyl-amino]-pyridin-3-yl}-N-methyl-isobutyramide]	2.4 nM	5.75 nM	–
CN(C(=O)C(C)(C)c1cc(C(F)(F)F)cc(C(F)(F)F)c1)c1cnc(N2CCC(S(C)(=O)=O)C2)cc1-c1ccccc1Cl (racemic) [Example 66, (RS)-2-(3,5-Bis-trifluoromethyl-phenyl)-N-[4-(2-chloro-phenyl)-6-(3-methanesulfonyl-pyrrolidin-1-yl)-pyridin-3-yl]-N-methyl-isobutyramide]	1.48 nM	1.29 nM	–
CC(O)CNc1cc(-c2ccccc2Cl)c(N(C)C(=O)C(C)(C)c2cc(C(F)(F)F)cc(C(F)(F)F)c2)cn1 (racemic) [Example 74, (RS)-2-(3,5-Bis-trifluoromethyl-phenyl)-N-[4-(2-chloro-phenyl)-6-(2-hydroxy-propylamino)-pyridin-3-yl]-N-methyl-isobutyramide]	0.871 nM	5.75 nM	–

Results, then the molecule that gave them:

Ki [1]	Ki [2, 3]	Ki [2, 4]	SMILES
–	–	6.03 nM	COc1cc(OC)cc(C(C)(C)C(=O)N(C)c2cnc(N3C[C@H](O)C[C@H]3CO)cc2-c2ccccc2C)c1 [Example 400, (2S,4R)-2-(3,5-Dimethoxy-phenyl)-N-[6-(4-hydroxy-2-hydroxymethyl-pyrrolidin-1-yl)-4-o-tolyl-pyridin-3-yl]-N-methyl-isobutyramide]
–	–	20 nM	COc1cc(OC)cc(C(C)(C)C(=O)N(C)c2cnc(NCCO)cc2-c2ccc(F)cc2C)c1 [Example 401, 2-(3,5-Dimethoxy-phenyl)-N-[4-(4-fluoro-2-methyl-phenyl)-6-(2-hydroxy-ethylamino)-pyridin-3-yl]-N-methyl-isobutyramide]
–	–	4.68 nM	COc1cc(OC)cc(C(C)(C)C(=O)N(C)c2cnc(N3CCC[C@H]3CO)cc2-c2ccc(F)cc2C)c1 [Example 402, (S)-2-(3,5-Dimethoxy-phenyl)-N-[4-(4-fluoro-2-methyl-phenyl)-6-(2-hydroxymethyl-pyrrolidin-1-yl)-pyridin-3-yl]-N-methyl-isobutyramide]
–	–	5.75 nM	COc1cc(OC)cc(C(C)(C)C(=O)N(C)c2cnc(N3C[C@H](O)C[C@H]3CO)cc2-c2ccc(F)cc2C)c1 [Example 403, (2S,4R)-2-(3,5-Dimethoxy-phenyl)-N-[4-(4-fluoro-2-methyl-phenyl)-6-(4-hydroxy-2-hydroxymethyl-pyrrolidin-1-yl)-pyridin-3-yl]-N-methyl-isobutyramide]
